Data on 2 compounds can be found in patent US8912315B2, “Purkinje cell-tropic viral vector” (Japan Science and Technology Agency, priority 2006, dated 2014).

This experiment has as its system HeLa cells. In kind it is cell-based. As to conditions: viruses generated in HEK293T cells with the named serum or protease inhibitor, Table 3; TU/ml.

`COc1ccc(S(=O)(=O)N(Cc2cccnc2)[C@@H](C(=O)NO)C(C)C)cc1` [CGS 27023A]: the “Titer × 10^9” value was 3.4 ± 1.4 × 10^9. Under “TIMP-1: metallo proteinase inhibitor added to medium during virus generation” stands 6.3 × 10^9.
